Results reported in article PMC8622623, “Histamine H3 Receptor Ligands—KSK-59 and KSK-73—Reduce Body Weight Gain in a Rat Model of Excessive Eating” (Pharmaceuticals, 2021).
Where two headings read alike, the source gives them in different places.

Assays:
[1] = Pharmacokinetics after single i.p. administration; format: in vivo; conditions: single i.p. 10 mg/kg; for AUC(0-inf) / Cmax / Tmax / CL/F / MRT / k el / Vd/F / half-life: ip; for AUC(0-inf): heading: AUC0-inf; for CL/F: read-out: CLS/F (clearance) (converted); for MRT: read-out: MRT (mean residence time); for k el: read-out: λz (terminal elimination rate constant) (converted); for Vd/F / half-life: rat, plasma; for Vd/F: n = 3, read-out: Vz/F (volume of distribution); for half-life: n = 3, read-out: t0.5λz (half-life) (converted)
Experimental: Six rats divided into two experimental groups were used in pharmacokinetic experiments. Three days before the experiment, rats’ jugular vein was cannulated allowing for the multiple blood sampling from the single animal. Investigated compounds suspended in 1% Tween 80 were administered i.p. at the single dose of 10 mg/kg. Blood samples (approximately 300 µL) were collected to Eppendorf tubes containing heparin at 5, 15, 30, 60, 120, 240 and 360 min after dosing. Plasma was harvested by centrifuging at 5000× g for 10 min and stored at −30 °C until bioanalysis.
Plasma concentrations of KSK-59 or KSK-73 were measured by liquid chromatography tandem mass spectrometry (LC-MS/MS) method. Samples (50 μL) were deproteinized at the ratio of 1:3 (v/v) with acetonitrile containing an internal standard (IS—pentoxifiline), briefly vortexed and then centrifuged for 10 min at the speed of 8000× g (Eppendorf miniSpin centrifuge). The supernatant was transferred into the autosampler vials and a sample volume of 10 μL was injected into LC-MS/MS system.
Chromatographic separation was carried out on XBridge™ C18 (3 × 50 mm, 5 µm, Waters, Dublin, Ireland) analytical column using the HPLC system Agilent 1100 (Agilent Technologies, Waldbronn, Germany). The mobile phase containing 0.1% formic acid in acetonitrile and in water was run at 0.3 mL/min in the gradient mode. Mass spectrometric detection was performed on an Applied Biosystems MDS Sciex (Concord, ON, Canada) API 2000 triple quadrupole mass spectrometer. Electrospray ionization (ESI) in the positive ion mode was used for ion production. The tandem mass spectrometer was operated at unit resolution in the selected reaction monitoring mode (SRM), monitoring the transitions of the protonated molecular ions m/z 382 to 107 for KSK-59, m/z 410 to 107 for KSK-73 and m/z 279 to 181 for IS. Data acquisition and processing were accomplished using the Applied Biosystems Analyst version 1.6 software. The calibration curves were constructed by plotting the ratio of the peak area of the studied compound to IS versus drug concentration and generated by weighted (1/x·x) linear regression analysis. The validated quantitation ranges were from 1 to 2000 ng/mL. Calculated accuracy and precision were within the ranges proposed by guidelines for bioanalytical methods validation (FDA, EMA). No significant matrix effect was observed and there were no stability related problems during the routine analysis of the samples.
Pharmacokinetic parameters were calculated by employing a non-compartmental approach, using Monolix version 2019R1 (Antony, France: Lixoft SAS, 2019) software. The area under the mean plasma concentration versus time curve extrapolated to infinity (AUC0-inf) was estimated using the log/linear trapezoidal rule. AUMC0-inf was estimated by calculation of total area under the first-moment curve by combining trapezoid calculation of AUMC0-t and extrapolated area. The mean residence time (MRT) was calculated from AUMC0-inf/AUC0-inf. The terminal rate constant (λz) was calculated by log-linear regression of the drug concentration data in the terminal phase and the terminal half-life (t1/2) were calculated as 0.693/λz. The clearance (CL/F) was estimated from the administered dose divided by AUC0-inf. The apparent volume of distribution during terminal phase (Vz/F) was calculated from (CL/F)/λz.

[2] = system: non-obese rats fed palatable diet; assay: Plasma lipids, hormones, corticosterone, CRP and IL-6 at end of chronic experiment; format: in vivo, female Wistar rats; conditions: for plasma triglyceride levels: day 31, palatable feed + treatment, compared to rats fed standard feed
Experimental: On the 31st day of the experiment, 20 min after i.p. administration of heparin (5000 units/rat) and thiopental (70 mg/kg b.w.), blood was collected from the left carotid artery and then centrifuged at 600× g (15 min, 4 °C) in order to obtain the plasma. To determine total cholesterol, HDL-cholesterol, LDL-cholesterol or triglyceride levels in plasma, standard enzymatic and spectrophotometric tests (Biomaxima S.A. Lublin, Poland) were used. The ELISA Kit (Cayman Chemical, USA) assay was used to determine corticosterone levels in plasma. To determine IL-6, ghrelin, adiponectin, leptin and C-reactive protein levels in plasma, standard ELISA Kit (Bioassay Technology Laboratory, Shanghai, China) was used.

H3 histamine receptor = target: T1, H3 histamine receptor (Homo sapiens, UniProt Q9Y5N1); assay: Lance cAMP intrinsic activity assay (antagonist dose-response); format: cell-based
T1 construct: host or cells: recombinant frozen ready-to-use cells
T1 sequence (Q9Y5N1 whole entry): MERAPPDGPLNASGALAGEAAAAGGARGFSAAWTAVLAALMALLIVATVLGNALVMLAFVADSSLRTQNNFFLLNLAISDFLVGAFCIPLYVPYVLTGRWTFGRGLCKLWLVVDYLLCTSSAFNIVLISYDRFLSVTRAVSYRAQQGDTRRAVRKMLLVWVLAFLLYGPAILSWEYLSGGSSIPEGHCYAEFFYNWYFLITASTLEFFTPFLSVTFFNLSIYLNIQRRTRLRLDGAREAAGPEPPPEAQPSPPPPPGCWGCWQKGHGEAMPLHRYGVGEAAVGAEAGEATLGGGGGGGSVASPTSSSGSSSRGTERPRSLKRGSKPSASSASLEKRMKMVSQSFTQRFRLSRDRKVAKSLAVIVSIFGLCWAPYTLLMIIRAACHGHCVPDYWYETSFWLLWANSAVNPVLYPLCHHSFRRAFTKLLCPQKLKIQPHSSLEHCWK
Experimental: Intrinsic activity studies were performed by two methods, Aequoscreen and Lance cAMP assays according to the manufacturer of the ready to use cells with stable expression of the H3 histamine receptor (Perkin Elmer, Waltham, MA, USA).
The LANCE Ultra cAMP assay as a homogeneous time-resolved fluorescence resonance energy transfer (TR-FRET) immunoassay is designed to measure cAMP produced upon modulation of adenylyl cyclase activity by GPCRs. The assay is based on the competition between the europium (Eu) chelate-labeled cAMP tracer and sample cAMP for binding sites on cAMP-specific monoclonal antibodies labeled with the ULight dye.
For measurement cells (frozen, ready to use) were thawed and resuspended in 4 mL of HBSS 1X. Then cells suspension was placed in a 15 mL Falcon tube and centrifuged for 10 min at 275× g. Pellet was resuspended in 1.5 mL HBSS 1X to determine cells concentration, and after next centrifugation cells were resuspended in stimulation buffer at appropriate concentration. […] Cell stimulation was performed for 30 min at RT°, and the agonist and antagonists were added simultaneously.

[3] = system: non-obese rats fed palatable diet; assay: Intraperitoneal glucose tolerance test after 28 administrations; format: in vivo, female Wistar rats; conditions: for blood glucose levels at 30 or/and 60 min after glucose load: KSK compounds 10 mg/kg b.w. or bupropion/naltrexone, glucose 1 g/kg i.p., vs control fed palatable feed; for AUC of IPGTT: vs control rats fed high-calorie feed
Experimental: The test was performed on the 29th day of the experiment. After twenty-eight administrations of the test compounds, food was discontinued for 20 h and then glucose tolerance was tested. Glucose (1 g/kg b.w.) was administrated i.p.. […] The area under the curve (AUC) was calculated using the trapezoidal rule.

[4] = antagonist dose-response with reference agonist (R)-alpha-methylhistamine at EC80, read-out: Lance cAMP IC50
[5] = text summary over both methods (Lance cAMP and Aequoscreen), read-out: IC50 value

Row | Structure (SMILES) | AUC(0-inf) ([1]; 10 mg/kg, rat plasma, n = 3) [ng·h/mL] | Cmax ([1]; rat plasma, n = 3) [ng/mL] | Tmax ([1]; rat plasma, n = 3) [min] | CL/F ([1]; rat plasma, n = 3) [mL/min/kg] | MRT ([1]; rat plasma, n = 3) [h] | k el ([1]; rat plasma, n = 3) [s⁻¹] | time at which Cmax was reached (first sampling point) ([1]; rat plasma) [min] | Vz/F (volume of distribution) ([1]; rat plasma, n = 3, 10 mg/kg) [L/kg] | t0.5λz (half-life) ([1]; rat plasma, n = 3, 10 mg/kg) [h] | Vd/F ([1]; 10 mg/kg) [L/kg] | half-life ([1]; 10 mg/kg) [h] | plasma triglyceride levels [2] | plasma adiponectin level ([2]; day 31, vs control rats fed palatable feed) | IC50 (H3 histamine receptor; [4]) [nM] | IC50 (H3 histamine receptor; [5]) [nM] | blood glucose levels at 30 or/and 60 min after glucose load [3] | AUC of IPGTT [3]
1 | CC(=O)c1ccc(OCCCCCCN2CCN(c3ccncc3)CC2)cc1.O=C(O)C(=O)O [KSK-59, 1-(4-((6-(4-(pyridin-4-yl)piperazin-1-yl)hexyl)oxy)phenyl)ethan-1-one oxalate] | 538 | 96 | 4.98 | 1120 | 2.04 | 0.000122 | 5 | 152.22 | 1.58 | 152 | 1.6 | statistically significantly higher | Significantly lower level of adiponectin | 3.79 ± 0.4 | ~3 | significantly lower | statistically significantly decreased
2 | CC(=O)c1ccc(OCCCCCCCCN2CCN(c3ccncc3)CC2)cc1.O=C(O)C(=O)O [KSK-73, 1-(4-((8-(4-(pyridin-4-yl)piperazin-1-yl)octyl)oxy)phenyl)ethan-1-one oxalate] | 888 | 216 | 4.98 | 675 | 4.2 | 5.28e-05 | 5 | – | – | 216 | 3.7 | comparable to the ones observed in rats from the control group fed standard feed | – | 10.5 ± 1.5 | 10 to 20 | significantly lower | statistically significantly decreased
